Results as given in a melting point compilation (Tetko et al.; mined from patent text by program, amines drawn as free bases though some values may be those of a salt).

Row | melting point | SMILES
1 | 129 to 132 °C | COc1ccccc1Oc1c(NS(=O)(=O)c2ccc(C(C)(C)C)cc2)nc(NCCN(C)C)nc1OCCOc1ncc(Br)cn1
2 | 87.2 to 88.2 °C | CCCC(C)(Br)C(=O)Nc1ccc(C(C)C)cc1 (configuration not stated)
3 | 181 to 183 °C | Cc1ccc(NC(=O)Cc2ccccc2C(=O)O)cc1/C=C/c1nc(C(C)C)cs1
4 | 288 to 289 °C | O=C1C(=Cc2ccccc2)SC(=S)N1N=c1sc2ccccc2s1
5 | 208 to 210 °C | Cc1cc(C)c(Nc2nc(C)ccc2S(=O)(=O)c2ccc(OCc3ccccc3C#N)cc2)c(C)c1
6 | 151 to 153 °C | O=C(O)c1ccccc1C(=O)NCCCSc1ccncc1
7 | 192 to 193 °C | NC(=O)c1ccc(NC2CCN(Cc3ccccc3)CC2)cc1
8 | 187 to 189 °C | Cn1c(C(F)(F)F)nc(-c2ccc(F)cc2)c1-c1ccc(S(C)(=O)=O)cc1
9 | 95 to 98 °C | CC(=O)SCC(Cc1ccccc1)C(=O)Nc1cc(C(=O)O)ccc1CN1CCCC1 (configuration not stated)
10 | 188 to 190 °C | Cc1cccnc1C=CCN1CCc2nc(N)sc2CC1
11 | 164 to 166 °C | CC1CC(=O)N(c2ccccn2)N=C1c1ccc(OC2CCN(C(=O)OC(C)(C)C)CC2)cc1 (configuration not stated)
12 | 210 to 211 °C | Cc1ccccc1Sc1c(O)cc(-c2ccccc2)oc1=O
13 | 175 °C | CN1CCN(C(=O)COC2c3ccccc3C(=O)N2c2ccc3ccc(Cl)nc3n2)CC1 (configuration not stated)
14 | 159 to 160 °C | COc1nc(N)nc(-c2ccccc2)n1
15 | 93 to 95 °C | CC(=O)Oc1ccc(CCl)cc1C(OC(C)=O)OC(C)=O
16 | 127 °C | CCOC(=O)c1ccc(-c2ccc(OCCO)c(-c3ccc(N(CC)CC)c(C(C)(C)C)c3)c2)cc1
17 | 184 to 186 °C | CC(C)c1cc(-c2ccc3c(c2)OCO3)nc2[nH]nc(N)c12
18 | 51 to 52.5 °C | COC(=O)COCCOc1ccc(N)cc1
19 | 228 to 230 °C | c1ccc(CC(Cc2ccccc2)(c2nnn[nH]2)c2nnn[nH]2)cc1
20 | 192 to 210 °C | CNC(=O)c1cc(C)ccc1Nc1nc(Cl)ncc1Cl
21 | 65 to 70 °C | C[C@@H](N[C@@H](Cc1c[nH]c2ccccc12)C(=O)O)[C@H](NC(=O)[C@@H](N)CC(N)=O)C(=O)O
22 | 133 °C | COCn1ccnc1C(O)(c1ccc(F)cc1)c1ccc(F)cc1
23 | 106 to 109 °C | CC(=O)OCC(C)(C)CS(N)(=O)=O
24 | 138 to 141 °C | CC(C)(C)c1cc(-c2nn(Cc3cccs3)c3ncccc23)cc(C(C)(C)C)c1O

Row | melting point | SMILES
25 | 68 to 70 °C | CN1CCN(C(=O)[C@H](CC(N)=O)NC(=O)OC(C)(C)C)CC1
26 | 56 to 57 °C | O=S1(=O)C=C(Br)C=C1CO
27 | 108 to 109 °C | COCOc1c(NC(=O)NCc2cccnc2)cc(OC)cc1C(C)(C)C
28 | 75.5 to 76.8 °C | COCCCCNC(=O)C(c1ccccc1)c1ccccc1
29 | 145 °C | Cc1cccc(NC(=O)NCC(=O)N(CC(=O)OC(C)(C)C)c2ccccc2C(=O)N(C)c2ccccc2)c1
30 | 155 °C | CC(=O)Oc1ccc2c(c1Cl)Sc1ccccc1N2C(C)=O
31 | 197 °C | Cn1cncc1C(N)(c1ccoc1)c1ccc2c(c1)c(-c1cccc(Cl)c1)cc(=O)n2C (configuration not stated)
32 | 83 to 87 °C | CCOC(=O)c1ccc(NCCCCCCCCCCCOc2ccccc2)cc1
33 | 70 °C | C=C(C)C(=O)OCCCOc1ccc(-c2cc(OC(=O)C(=C)C)cc(-c3ccc(OCCOC(=O)C(=C)C)cc3)c2)cc1F
34 | 139 to 143 °C | CN(C)c1ccc2c(c1)Sc1cc(N(C)C=O)ccc1N2C=O
35 | > 250 °C | Nc1nc2ccccc2c2c1nc(O)n2CC1CCOCC1
36 | 148 to 150 °C | COC(=O)C1=C(C)Nc2ccccc2SC1c1ccc(C)cc1 (configuration not stated)
37 | 118 to 120 °C | O=c1ccc2ccc(OCC(O)CO)cc2o1 (configuration not stated)
38 | 205 to 206 °C | COc1c(-c2cc3c(s2)CCC(CO)=C3)ccc2c(=O)c(C(=O)O)cn(C3CC3)c12
39 | 53 to 54 °C | CC1CC(=O)Nc2nc(OCCCCN3CCN(c4cccc(Cl)c4Cl)CC3)ccc21 (configuration not stated)
40 | 166 to 168 °C | Cc1nn(-c2cccc(C(F)(F)F)c2)cc1C(=O)O
41 | 140 to 141 °C | CCOC(=O)c1ncoc1-c1ccc([N+](=O)[O-])cc1Cl
42 | 180 to 220 °C | O=C(O)Cc1ccc(C(NC(=O)c2ccccc2)C(=O)O)cc1 (configuration not stated)
43 | 91 to 93 °C | O=[N+]([O-])c1ccccc1Sc1ccc(Cl)cc1
44 | 114 °C | CCCCCCCCCCCCC(C(=O)NO)S(=O)(=O)c1ccc(OC)cc1 (configuration not stated)
45 | 188 °C | CCCCc1nc(=O)n2ncc(Br)c2[nH]1
46 | 86 to 92 °C | CNC1=NS(=O)N=C1NCCSCc1ccc(CN(C)C)o1 (configuration not stated)
47 | 93 to 95 °C | c1ccc2c(c1)CCC(n1ccnc1)C2 (configuration not stated)
48 | 321 to 323 °C | CS(=O)c1ccccc1-c1cc2[nH]c3ccc(O)cc3c2c2c1C(=O)NC2=O (configuration not stated)

Row | melting point | SMILES
49 | 94 °C | COCCNC(=O)c1nc(C(=O)OC)c2cc(Cc3ccc(F)cc3)cnc2c1OCc1ccccc1
50 | 152 to 153 °C | O=C(O)CCC(=NO)c1ccc(-c2ccc(F)cc2)cc1
51 | 248 to 249 °C | CC(C)(C)C(=O)c1c[nH]c2ncc(-c3cccc(C#N)c3)nc12
52 | 143 to 144 °C | CCCc1cc(NC(=S)N2CCN(c3cc(OC)cc(OC)c3)CC2)c(OC)nc1C
53 | 176 to 177 °C | CCc1cc2c(cc1OC(C)=O)CCC1C2CCC2(C)C(C#N)=CCC12 (configuration not stated)
54 | 89 to 91 °C | CSc1ccc(C(=CN(C)C)C(C)=O)cc1
55 | 125 to 128 °C | COc1ccc(N2N=C(C)C(C(=O)Nc3ccc(F)cc3)C2=O)cc1 (configuration not stated)
56 | 196 to 199 °C | CCN(CC)CC=CC(=O)Nc1ccc2ncnc(Nc3cccc(Br)c3)c2c1
57 | 222 °C | O=C(Nc1nc(C(F)(F)F)co1)C1c2ccccc2Oc2ccccc21
58 | 147 to 149 °C | O=C(NCCNCC1COc2ccccc2O1)C12CC3CC(CC(C3)C1)C2 (configuration not stated)
59 | 134 to 137 °C | CCCCCNc1nc(SC)[nH]c2nccc1-2
60 | 100 to 101 °C | Cc1oc(-c2ccccc2)nc1COc1cc(CO)ccn1
61 | 165 to 167 °C | CC(=O)C(=Cc1ccccc1)C(C)=O
62 | 92 to 94 °C | CCCCSc1c2c(=O)n(C)c(=O)n(CC(C)C)c2cn1Cc1cccc2ccccc12
63 | 247 to 248 °C | COC(=O)c1cc(C(=O)NCC(N)=O)c2cc(Cc3ccc(F)cc3)cnc2c1O
64 | 154 to 156 °C | CCCc1c(OCc2cccc(C(=O)O)c2OCC)ccc(C(C)=O)c1O
65 | 188 to 190 °C | COc1cc(OC)nc(Oc2cccc3cc(C)oc(=O)c23)n1
66 | 161 to 163 °C | Cc1ccc(OC(=O)N=C2NC(c3ccc(C)cc3)=NC2(C(F)(F)F)C(F)(F)F)cc1
67 | 144 to 146 °C | CC(=O)c1ccccc1-c1cccc(-n2cnc(-c3nc(C)no3)c2)c1
68 | 87 to 89 °C | OC(c1cscn1)(c1cscn1)C(F)(F)F
69 | 90 to 92 °C | C[Si](C)(C)N1C(=O)c2ccccc2S1(=O)=O
70 | 197 °C | O=C(NC(=O)c1c(F)cccc1F)Nc1ccc(C(F)(F)F)cc1F

Row | SMILES | melting point
71 | Cc1nc(CO)c2n1-c1ccc(Cl)cc1C(c1ccccc1Cl)=NC2 | 215 to 217 °C
72 | Fc1cccc(F)c1C1=NCC(=S)Nc2ccc(Cl)cc21 | 222 to 224 °C
